Converted amounts (≈) assume the structure as drawn.
Legend:
Type in all cases: functional, cell-based
HSC-2 = assay: Cytotoxicity against human HSC2 cells after 24 hrs by MTT assay; conditions: HSC-2, 24 h
A-375 = assay: Cytotoxicity against human A375 cells after 24 hrs by MTT assay; conditions: A-375, 24 h
HepG2 = assay: Cytotoxicity against human HepG2 cells after 24 hrs by MTT assay; conditions: HepG2, 24 h
[1] = Cytotoxicity against human HPC cells after 24 hrs by MTT assay

| Compound | IC50 (HSC-2) [µg/mL] | IC50 (A-375) [µg/mL] | IC50 (HepG2) [µg/mL] | IC50 [1] [µg/mL] |
| --- | --- | --- | --- | --- |
| C=C1CO[C@@]2(O[C@H]3C[C@H]4[C@@H]5CC=C6C[C@@H](O)C[C@@H](O[C@@H]7OC[C@H](O)[C@H](O[C@@H]8OC[C@@H](O)[C@H](O)[C@H]8O)[C@H]7O[C@@H]7O[C@@H](C)[C@H](OC(C)=O)[C@@H](O[C@@H]8OC[C@](O)(CO)[C@H]8O)[C@H]7O)[C@]6(C)[C@H]5CC[C@]4(C)[C@H]3[C@@H]2COC(C)=O)[C@@H](O)[C@H]1O | 184 (≈ 167 µM) | – | – | – |
| C[C@@H]1O[C@@H](O[C@H]2CC[C@]3(C=O)[C@H]4CC[C@]5(C)[C@@H](c6ccc(=O)oc6)[C@@H](O)C[C@]5(O)[C@@H]4CC[C@]3(O)C2)[C@H](O)[C@H](O)[C@H]1O | 0.0085 (≈ 0.0147 µM) | 0.055 (≈ 0.095 µM) | 0.74 (≈ 1.28 µM) | 9.5 (≈ 16.4 µM) |
| C=C1CO[C@@]2(O[C@H]3C[C@H]4[C@@H]5CC=C6C[C@@H](O)C[C@@H](O[C@@H]7OC[C@H](O)[C@H](O[C@@H]8OC[C@@H](O)[C@H](O)[C@H]8O)[C@H]7O[C@@H]7O[C@@H](C)[C@H](OC(C)=O)[C@@H](O[C@@H]8OC[C@](O)(CO)[C@H]8O)[C@H]7O)[C@]6(C)[C@H]5CC[C@]4(C)[C@H]3[C@@H]2COC(C)=O)[C@@H](O)[C@H]1O[C@@H]1O[C@H](CO)[C@@H](O)[C@H](O)[C@H]1O | > 200 | – | – | – |
| COc1cccc2c1C(=O)c1c(O)c3c(c(O)c1C2=O)C[C@@](O)(C(=O)CO)C[C@@H]3O[C@H]1C[C@H](N)[C@H](O)[C@H](C)O1 [DOXORUBICIN] | 2.5 (≈ 4.6 µM) | 1.8 (≈ 3.31 µM) | > 40 | > 40 |
| C[C@]12CC[C@H]3[C@@H](CC[C@]4(O)C[C@@H](O[C@@H]5O[C@H](CO)[C@@H](O)[C@H](O)[C@H]5O)CC[C@]34C=O)[C@@]1(O)CC[C@@H]2c1ccc(=O)oc1 | 0.0029 (≈ 0.00501 µM) | 0.0086 (≈ 0.0149 µM) | 0.23 (≈ 0.397 µM) | 0.082 (≈ 0.142 µM) |
| C=C1CO[C@@]2(O[C@H]3C[C@H]4[C@@H]5CC=C6C[C@@H](O)C[C@@H](O[C@@H]7OC[C@H](O)[C@H](O[C@@H]8OC[C@@H](O)[C@H](O)[C@H]8O)[C@H]7O[C@@H]7O[C@@H](C)[C@H](OC(C)=O)[C@@H](O[C@@H]8OC[C@](O)(CO)[C@H]8O)[C@H]7O)[C@]6(C)[C@H]5CC[C@]4(C)[C@H]3[C@@H]2COC(C)=O)[C@@H](O)[C@H]1O[C@@H]1O[C@H](C)[C@@H](O)[C@H](O)[C@H]1O | > 200 | – | – | – |
| C=C1CO[C@@]2(O[C@H]3C[C@H]4[C@@H]5CC=C6C[C@@H](O)C[C@@H](O[C@@H]7OC[C@H](O)[C@H](O[C@@H]8OC[C@@H](O)[C@H](O)[C@H]8O)[C@H]7O[C@@H]7O[C@@H](C)[C@H](OC(C)=O)[C@@H](O[C@@H]8OC[C@](O)(CO)[C@H]8O)[C@H]7O)[C@]6(C)[C@H]5CC[C@]4(C)[C@H]3[C@@H]2C)[C@@H](O)C1 | 27 (≈ 26.2 µM) | – | – | – |
| C[C@@H]1O[C@@H](O[C@H]2CC[C@]3(C=O)[C@H]4CC[C@]5(C)[C@@H](c6ccc(=O)oc6)CC[C@]5(O)[C@@H]4CC[C@]3(O)C2)[C@H](O)[C@H](O)[C@H]1O | 0.0028 (≈ 0.00498 µM) | 0.0063 (≈ 0.0112 µM) | 0.25 (≈ 0.444 µM) | 6.7 (≈ 11.9 µM) |
| C=C1CO[C@@]2(O[C@H]3C[C@H]4[C@@H]5CC=C6C[C@@H](O)C[C@@H](O[C@@H]7OC[C@H](O)[C@H](O[C@@H]8OC[C@@H](O)[C@H](O)[C@H]8O)[C@H]7O[C@@H]7O[C@@H](C)[C@H](OC(C)=O)[C@@H](O[C@@H]8OC[C@](O)(CO)[C@H]8O)[C@H]7O)[C@]6(C)[C@H]5CC[C@]4(C)[C@H]3[C@@H]2C)[C@@H](O)[C@H]1O | 86 (≈ 82.3 µM) | – | – | – |
